Experimental findings from publication PMC6384901 (Molecules, 2019) are described below.

Numbered stars: 1 amine (or outer) side, 2 acyl side, 3 side chain; on linkers, the order of the positions; unused ones are H or OH. Bridge positions count the residues as written; N and C are the ends. Peptide text beside a SMILES is read from it. * marks the point of attachment. Suberoyl(Gly)2 = O=C(CCCCCCC(=O)NCC(=O)[*:2])NCC(=O)[*:1]; Suberoyl = O=C(CCCCCCC(=O)[*:2])[*:1]; Myristoyl = CCCCCCCCCCCCCC(=O)*; Suc = O=C(CCC(=O)[*:2])[*:1]

Data set [1] relates to His6-SIRT2, 297 nM. The data set is described as follows: 50 mM Hepes (pH 8.0), 137 mM NaCl, 2.7 mM KCl, 1 mM MgCl2, 1 mM DTT, β-NAD^+ 0.5 mM. Conditions: human, 37 °C, up to 2 min.
Data set [2] concerns His6-SIRT3, 739 nM. The data set is described as follows: 50 mM Hepes (pH 8.0), 137 mM NaCl, 2.7 mM KCl, 1 mM MgCl2, 1 mM DTT, β-NAD^+ 3.5 mM. To be noted: human, 37 °C, up to 2 min.
Data set [3] relates to His6-SIRT1 or GST-SIRT1, 243 nM. The data set is described as follows: 50 mM Hepes (pH 8.0), 137 mM NaCl, 2.7 mM KCl, 1 mM MgCl2, 1 mM DTT, β-NAD^+ 0.5 mM. To be noted: human, 37 °C, up to 5 min.
Data set [4] relates to pronase. The experiment in a line: pronase solution in 100 mM Tris HCl (pH 7.3) (8 ng/µL). To be noted: Streptomyces griseus, 37 °C, up to 60 min.
Data set [5] concerns the target T1, human recombinant His6-SIRT1 or GST-SIRT1 (Homo sapiens, UniProt Q96EB6).
T1 construct: His6 or GST (two alternative purchased preparations, not both on one protein); purchased Sigma-Aldrich China (His6-SIRT1); Cayman Chemical (GST-SIRT1)
T1 sequence (Q96EB6 1-747): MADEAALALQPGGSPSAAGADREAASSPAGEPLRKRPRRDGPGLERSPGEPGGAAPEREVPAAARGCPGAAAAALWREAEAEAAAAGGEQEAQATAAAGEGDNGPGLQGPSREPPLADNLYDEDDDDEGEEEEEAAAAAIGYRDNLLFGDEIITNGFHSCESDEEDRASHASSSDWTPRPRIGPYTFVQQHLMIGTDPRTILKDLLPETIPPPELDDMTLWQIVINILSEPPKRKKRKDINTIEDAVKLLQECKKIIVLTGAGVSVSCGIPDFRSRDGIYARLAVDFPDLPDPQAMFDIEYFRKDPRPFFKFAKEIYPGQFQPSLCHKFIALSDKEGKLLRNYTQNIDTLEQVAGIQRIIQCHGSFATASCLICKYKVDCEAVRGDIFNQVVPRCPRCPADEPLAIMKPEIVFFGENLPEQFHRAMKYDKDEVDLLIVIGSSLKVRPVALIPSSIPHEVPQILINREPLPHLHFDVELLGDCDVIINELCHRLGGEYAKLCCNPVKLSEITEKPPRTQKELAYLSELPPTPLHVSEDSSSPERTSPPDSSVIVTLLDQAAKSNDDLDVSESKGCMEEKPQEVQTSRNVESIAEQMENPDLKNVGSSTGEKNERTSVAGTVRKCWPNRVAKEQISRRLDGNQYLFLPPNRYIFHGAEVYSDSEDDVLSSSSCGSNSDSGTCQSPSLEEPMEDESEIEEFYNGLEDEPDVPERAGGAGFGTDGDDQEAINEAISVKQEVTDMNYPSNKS
The data set is described as follows: HPLC-based sirtuin deacylation activity assay, SIRT1. It is filed as biochemical. Conditions: substrate activity with SIRT1; 50 mM Hepes pH 8.0, 0.5 mM β-NAD+, SIRT1 243 nM, 37 °C, 5 min, HPLC 214 nm, Michaelis-Menten fit. The procedure: The steady-state kinetic parameters (kcat and KM) for the SIRT1/2/3 substrate activities of the purified 5–8 were determined with a HPLC-based sirtuin deacylation activity assay and are recorded in Table 2 and Table 3. As judged by kcat/KM ratios, cyclic peptides 5–8 were all found to be excellent SIRT1 substrates, actually 5, 7, and 8 are all better SIRT1 substrates than the linear hexapeptide-based SIRT1 substrate 3 (depicted in Figure 2) reported in the current literature (kcat/KM = 800 M^−1 s^−1). Cyclic peptides 5–8 were also all found to be better SIRT3 substrates than the linear hexapeptide-based SIRT3 substrate 3 reported in the current literature (kcat/KM = 990 M^−1·s^−1).
The following materials were obtained from commercial sources for the in vitro sirtuin deacylation activity assay and the pronase digestion assay, and were used as received. Sigma-Aldrich China: the active human recombinant His6-SIRT1, Trizma, Hepes, β-NAD^+, a 1.0 M solution of MgCl2 (molecular-biology grade), the pronase from Streptomyces griseus; Cayman Chemical (Ann Arbor, MI, USA): the active human recombinant GST-SIRT1, the active human recombinant His6-SIRT2, the active human recombinant His6-SIRT3; TCI Shanghai: DL-dithiothreitol (DTT); Alfa Aesar China: NaCl, KCl.
A sirtuin deacylation assay solution contained the following: 50 mM Hepes (pH 8.0), 137 mM NaCl, 2.7 mM KCl, 1 mM MgCl2, 1 mM DTT, β-NAD^+ (~5.6 × KM: 0.5 mM for the SIRT1 and SIRT2 assays, 3.5 mM for the SIRT3 assay), one test compound (5, 6, 7, or 8) with varied concentrations including 0, and a sirtuin (His6-SIRT1 or GST-SIRT1, 243 nM; His6-SIRT2, 297 nM; or His6-SIRT3, 739 nM). An enzymatic reaction was initiated by the addition of a sirtuin at 37 °C and was incubated at 37 °C for 5 min (for the SIRT1 assay) or 2 min (for the SIRT2 and SIRT3 assays) until quenched with the following stop solution: 100 mM HCl and 0.16 M acetic acid. The quenched assay solutions were directly injected into a C18 column (0.46 × 25 cm, 5 μm), and the column was eluted with a gradient of ddH2O containing 0.05% (v/v) TFA and acetonitrile containing 0.05% (v/v) TFA at 1 mL/min and was monitored at 214 nm. Turnover of the limiting substrate was kept at <10%. Stock solutions of the test compounds were all prepared in ddH2O. The integrated product and substrate HPLC peak areas were then used to determine the initial velocities for the sirtuin-catalyzed deacylation reaction at different concentrations of a test compound (5, 6, 7, or 8). The initial velocity-concentration data were analyzed with KaleidaGraph® (Synergy Software, Reading, PA, USA) and the data were fitted to the Michaelis-Menten equation to obtain the kinetic parameters kcat and KM, as recorded in Table 2 and Table 3.

“CH3CONH-Lys-Lys-(N^ε-acetyl-Lysine)-Lys-Met-NH2, side chains of Lys1 and Lys4 bridged by succinyl (read from the drawn structure)”: the cleaved bond result in data set [1] is recorded as “SIRT2-catalyzed deacylation of N^ε-acetyl-lysine”; in data set [2] it was “SIRT3-catalyzed deacylation of N^ε-acetyl-lysine”; in data set [3] it was “SIRT1-catalyzed deacylation of N^ε-acetyl-lysine”.

“CH3CONH-Lys-Lys-(N^ε-acetyl-Lysine)-Lys-NH2, side chains of Lys1 and Lys4 bridged by Gly-suberoyl-Gly (read from the drawn structure)”: the cleaved bond result in data set [1] is “SIRT2-catalyzed deacylation of N^ε-acetyl-lysine”; in data set [2], “SIRT3-catalyzed deacylation of N^ε-acetyl-lysine”; in data set [3] it was “SIRT1-catalyzed deacylation of N^ε-acetyl-lysine”.

Regarding “CH3CONH-Lys-Lys-(N^ε-acetyl-Lysine)-Lys-Met-NH2, side chains of Lys1 and Lys4 bridged by Gly-suberoyl-Gly (read from the drawn structure)”, the fragment found in data set [4] is listed as 5a. The results for the cleaved bond entry in data set [1], in data set [2] and in data set [3] were “SIRT2-catalyzed deacylation of N^ε-acetyl-lysine”, “SIRT3-catalyzed deacylation of N^ε-acetyl-lysine” and “SIRT1-catalyzed deacylation of N^ε-acetyl-lysine”, respectively.

For the compound `CSCC[C@H](NC(=O)[C@@H]1CCCCNC(=O)CCC(=O)NCCCC[C@H](NC(C)=O)C(=O)N[C@@H](CCCCN)C(=O)N[C@@H](CCCCNC(C)=O)C(=O)N1)C(N)=O` [Compound 6] (Ac-KKK(Ac)KM-NH2; linker 1-4 via Suc), in data set [5], the KM was found to be 41.3 ± 1.83 µM and the kcat is 25.9 ± 2.3 10^−3, s^−1.

Take “CH3CONH-Lys-Arg-(N^ε-myristoyl-Lysine)-Lys-Thr-NH2, side chains of Lys1 and Lys4 bridged by suberoyl (read from the drawn structure)”: the values for the cleaved bond entry in data set [1], in data set [2] and in data set [3] were “SIRT2-catalyzed deacylation of N^ε-myristoyl-lysine”, “SIRT3-catalyzed deacylation of N^ε-myristoyl-lysine” and “SIRT1-catalyzed deacylation of N^ε-myristoyl-lysine”, respectively.

`CCCCCCCCCCCCCC(=O)NCCCC[C@@H]1NC(=O)[C@H](CCCNC(=N)N)NC(=O)[C@@H](NC(C)=O)CCCCNC(=O)CCCCCCC(=O)NCCCC[C@@H](C(=O)N[C@H](C(N)=O)[C@@H](C)O)NC1=O` [Compound 7] (Ac-KRK(Myristoyl)KT-NH2; linker 1-4 via Suberoyl): in data set [5], the Michaelis constant (KM) came to 2.85 ± 0.13 µM and the kcat is listed as 5.8 ± 0.1 10^−3, s^−1.

Turning to `CC(=O)NCCCC[C@@H]1NC(=O)[C@H](CCCCN)NC(=O)[C@@H](NC(C)=O)CCCCNC(=O)CNC(=O)CCCCCCC(=O)NCC(=O)NCCCC[C@@H](C(N)=O)NC1=O` [Compound 8] (Ac-KKK(Ac)K-NH2; linker 1-4 via Suberoyl(Gly)2), in data set [5], the Michaelis-Menten constant (KM) was 42.2 ± 17.5 µM.

For `CSCC[C@H](NC(=O)[C@@H]1CCCCNC(=O)CNC(=O)CCCCCCC(=O)NCC(=O)NCCCC[C@H](NC(C)=O)C(=O)N[C@@H](CCCCN)C(=O)N[C@@H](CCCCNC(C)=O)C(=O)N1)C(N)=O` [Compound 5] (Ac-KKK(Ac)KM-NH2; linker 1-4 via Suberoyl(Gly)2), in data set [5], the KM was 22.2 ± 1.8 µM and the kcat was 35.6 ± 5.1 10^−3, s^−1.

For orientation: KM means the concentration of substrate that gives half-maximal velocity.
